Read-outs that look alike come from different tables or passages of the source.
Columns and labels:
[1] = system: CD20-expressing Raji-luc tumor cells; settings: NOD-SCID mice injected with Raji-luc tumor cells and PBMCs; even in the presence of an excess of IgG1-RTX-FEAR; cited from earlier work
[2] = system: R/R DLBCL eligible for ASCT; format: in vivo, human; settings: in combination with R-DHAX/C, preliminary
Procedure: The trial is conducted in 2 parts: dose escalation (Part 1) and expansion (Part 2). Subjects participate in only one part. Both parts consist of a screening period, a treatment period, a safety follow-up period, and a survival follow-up period.
Epcoritamab is initially be administered in combination with R-DHAX/C in a 3-subject cohort. DLTs are evaluated during the first 28 days.
Dexamethasone (40 mg) is administered intravenously or orally on days 1-4 of a cycle once every 3 weeks (Q3W) for cycles 1-3. Cytarabine (2 g/m^2) is administered intravenously on day 1 (usually over 3 hours), repeated after 12 hours (may result in a second dose on day 2 depending on timing of first dose), once every 3 weeks (Q3W) for cycles 1-3. […] Carboplatin (for DHAC) (AUC=5 mg/ml/min; Calvert's formula) is administered intravenously on day 1 once every 3 weeks (Q3W) for cycles 1-3.
CRS is graded according to the ASTCT grading for CRS (Tables 6 and 7), and for treatment of CRS, subjects should receive supportive care. […]

[3] = molecular target: T1, CD20 (Homo sapiens, UniProt P11836); settings: bind to a different epitope; cited from earlier work
T1 sequence (P11836 1-297): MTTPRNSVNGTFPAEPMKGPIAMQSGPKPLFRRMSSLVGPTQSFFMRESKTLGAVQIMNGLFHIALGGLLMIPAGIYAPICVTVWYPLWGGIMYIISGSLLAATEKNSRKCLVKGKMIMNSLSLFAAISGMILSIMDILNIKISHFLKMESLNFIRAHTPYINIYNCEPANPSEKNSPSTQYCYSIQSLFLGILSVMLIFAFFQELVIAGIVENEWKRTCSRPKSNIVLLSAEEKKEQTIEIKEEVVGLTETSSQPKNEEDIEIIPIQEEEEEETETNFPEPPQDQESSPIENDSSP

Substance: Epcoritamab: IgG1 bispecific CD3×CD20 antibody; heavy and light chain pairs SEQ ID NOs: 24 and 25, and 26 and 27; CAS 2134641-34-0
- tumor growth in the xenograft model [1]: effectively reduce tumor growth
- responders observed ([2]; escalation phase, as of Sep. 8, 2021, 22 patients dosed in total): 4
- responders observed ([2]; expansion phase 48 mg, as of Sep. 8, 2021, response data not completely entered): 0

Substance: IgG1-CD20: anti-CD20 antibody of which the CD20 arm of epcoritamab is derived
- competition for CD20 binding [3]: compete for CD20 binding

From patent US11548952B2, “Bispecific antibody against CD3 and CD20 in combination therapy for treating diffuse large B-cell lymphoma” (GENMAB A/S, priority 2020, dated 2023)
